According to patent publication US20090023184A1, “Novel Tachykinin Peptides, Precursor Peptides Thereof And Genes Encoding The Same” (SUNTORY LIMITED, priority 1999, published 2009):

What was measured:
[1] = test system: ileum of the guinea pig; assay: Measurement of the ileum constricting activity of the guinea pig (isolated ileum, tension recording); assay type: cell-based; details: concentration of 1×10^−8 M in chamber, 37° C. physiological saline; FIGS. 5 and 6
Description: The ileum constricting activity of the guinea pig was performed in accordance with a method by Champagne et al. (Champagne D. E. et al., Proc. Natl. Acad. Sci. USA., 91, 138-142, 1994).
The ileum of the guinea pig was excised, and the both ends thereof were fastened with a cotton thread. Then, one end thereof was fixed to a sample chamber (5 ml capacity) and another end was fixed to a transducer to obtain a specimen for the examination. The inside of the sample chamber was maintained constantly with 37° C. physiological saline. The samples to be measured were dissolved into the physiological saline solution, and added to the sample chamber. The changes of tension of the ileum by constriction were recorded.

[2] = test system: rectum of the carp; assay: Measurement of the rectum constricting activity of the carp (isolated intestine, tension recording); assay type: cell-based; details: added to the chamber with the amount corresponding to one head of Octopus vulgaris; FIGS. 3 and 4
Description: The rectum constricting activity of the carp was performed as follow. That is, the intestine of the carp was excised, and the both ends thereof were fastened with a cotton thread. Then, one end thereof was fixed to a sample chamber (2 ml capacity) and another end was fixed to a transducer to obtain a specimen for the examination. The samples to be measured were dissolved into the physiological saline solution, and added to the sample chamber. The changes of tension of the intestine by constriction were recorded.

Row | Substance | constricting activity against the ileum of the guinea pig [1] | constricting activity against the rectum of the carp [2]
1 | H-Lys-Pro-Pro-Ser-Ser-Ser-Glu-Phe-Ile-Gly-Leu-Met-NH2 (H-KPPSSSEFIGLM-NH2) [Compound (2), tachykinin neuropeptide of Octopus vulgaris posterior salivary gland, isolated from Fraction B and also synthesized] | constricted strongly | constricted strongly
2 | H-Lys-Pro-Pro-Ser-Ser-Ser-Glu-Phe-Val-Gly-Leu-Met-NH2 (H-KPPSSSEFVGLM-NH2) [Compound (1), tachykinin neuropeptide of Octopus vulgaris posterior salivary gland, isolated from Fraction A and also synthesized] | constricted strongly | constricted strongly
